Activity calls are given as the source filed them.
Assays:
HEK293 = assay: inhibitors of LMP1-driven NF-kB reporter, dose response, cell-based, HEK293, luciferase, cherry-pick (AID 588343); type: functional; settings: Homo sapiens
[1] = human group III sPLA2 inhibitors, dose response, biochemical, QFRET, IC50 (AID 743457);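 note: green fluorescence rise as the enzyme cleaves BODIPY PC-A2 in liposomes; potency for inhibition of the enzyme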
fMet-Leu-Phe receptor = fMet-Leu-Phe receptor (Homo sapiens, UniProt P21462); assay: FPR ligands, dose response (AID 519); type: functional
Cytochrome P450 2D6 = Cytochrome P450 2D6 (Homo sapiens, UniProt P10635);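 note: CYP2D6 member of a cytochrome P450 panel assay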
[2] = biological target: 1-phosphatidylinositol 4,5-bisphosphate phosphodiesterase beta-3 (Homo sapiens, UniProt Q01970); assay: Fluorescence-based biochemical high throughput dose response assay to identify inhibitors of phospholipase C isozymes (PLC-B3).
Cytochrome P450 1A2 = biological target: T1, Cytochrome P450 1A2 (Homo sapiens, UniProt P05177);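 note: PubChem cytochrome P450 panel assay, CYP1A2 panel member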
T1 sequence (P05177 whole entry): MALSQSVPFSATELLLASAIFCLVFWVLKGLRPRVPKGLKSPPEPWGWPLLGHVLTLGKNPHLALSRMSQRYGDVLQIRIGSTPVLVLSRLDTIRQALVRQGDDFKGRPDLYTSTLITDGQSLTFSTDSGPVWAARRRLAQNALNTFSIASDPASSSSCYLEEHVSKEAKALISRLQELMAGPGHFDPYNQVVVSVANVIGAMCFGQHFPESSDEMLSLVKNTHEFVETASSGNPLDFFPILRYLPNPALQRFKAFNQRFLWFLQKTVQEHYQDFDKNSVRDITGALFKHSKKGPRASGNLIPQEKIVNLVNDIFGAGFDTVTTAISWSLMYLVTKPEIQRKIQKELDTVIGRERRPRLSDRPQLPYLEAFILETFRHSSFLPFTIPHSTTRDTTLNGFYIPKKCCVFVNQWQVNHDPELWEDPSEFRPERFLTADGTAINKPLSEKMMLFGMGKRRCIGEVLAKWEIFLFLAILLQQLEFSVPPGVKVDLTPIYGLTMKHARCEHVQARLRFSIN

[3] = biological target: 1-phosphatidylinositol 4,5-bisphosphate phosphodiesterase gamma-1 (Homo sapiens, UniProt P19174); assay: Counterscreen for inhibitors of phospholipase C isozymes (PLC-B3): Fluorescence-based biochemical high throughput dose response assay to identify inhibitors of phospholipase C isozymes (PLC-gamma1).
Cytochrome P450 2C9 = Cytochrome P450 2C9 (Homo sapiens, UniProt P11712)
Major prion protein = Major prion protein (Homo sapiens, UniProt P04156); type: functional, cell-based
cells [4] = assay: cells
[5] = biological target: T2, Voltage-gated N-type calcium channel alpha-1B subunit/Amyloid beta A4 precursor protein-binding family A member 1 (Homo sapiens, UniProt Q00975+Q02410); type: protein assay
[6] = biological target: T3, Corticotropin-releasing factor receptor 2/Corticotropin-releasing factor-binding protein (Homo sapiens, UniProt P24387+Q13324); assay: activators of CRF receptor 2 with binding protein – uHTS hits, confirmation (AID 602473); type: functional; settings: read-out: EC50_Mean
T3 sequence (Q13324 whole entry): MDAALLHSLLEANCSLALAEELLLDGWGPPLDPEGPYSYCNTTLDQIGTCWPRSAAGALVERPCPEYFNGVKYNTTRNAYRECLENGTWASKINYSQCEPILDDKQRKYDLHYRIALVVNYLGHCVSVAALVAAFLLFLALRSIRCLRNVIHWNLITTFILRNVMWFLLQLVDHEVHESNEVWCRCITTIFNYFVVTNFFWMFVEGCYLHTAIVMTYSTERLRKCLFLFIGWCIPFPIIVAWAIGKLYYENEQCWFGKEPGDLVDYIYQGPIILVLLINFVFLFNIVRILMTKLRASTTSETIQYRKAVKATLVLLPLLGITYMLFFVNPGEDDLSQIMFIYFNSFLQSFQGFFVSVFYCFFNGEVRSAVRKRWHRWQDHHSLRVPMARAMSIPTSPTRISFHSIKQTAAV
T3 sequence (P24387 whole entry): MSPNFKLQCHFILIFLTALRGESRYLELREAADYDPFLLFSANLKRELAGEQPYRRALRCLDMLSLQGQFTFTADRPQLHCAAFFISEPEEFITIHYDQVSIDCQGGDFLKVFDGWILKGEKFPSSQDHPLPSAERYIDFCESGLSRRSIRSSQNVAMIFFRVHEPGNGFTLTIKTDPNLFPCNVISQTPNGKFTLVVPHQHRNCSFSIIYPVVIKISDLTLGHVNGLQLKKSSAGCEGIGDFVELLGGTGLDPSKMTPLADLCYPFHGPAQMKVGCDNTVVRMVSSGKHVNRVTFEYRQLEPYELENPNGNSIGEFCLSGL

[7] = biological target: T3, Corticotropin-releasing factor receptor 2/Corticotropin-releasing factor-binding protein; assay: Dose Response confirmation of uHTS hits for small molecule antagonists of the CRF-binding protein and CRF-R2 receptor complex.; type: functional; settings: read-out: IC50_Mean
Caspase-6 = Caspase-6 (Homo sapiens, UniProt P55212); assay: human caspase-6 inhibitors, dose response, biochemical, VEID-R110 fluorescence, cherry-pick (AID 720632)
[8] = biological target: T2, Voltage-gated N-type calcium channel alpha-1B subunit/Amyloid beta A4 precursor protein-binding family A member 1; type: protein assay; remark: listed apart in the source
[9] = biological target: NAD-dependent protein deacylase sirtuin-5, mitochondrial (Homo sapiens, UniProt Q9NXA8); assay: SIRT5 desuccinylase inhibitors, dose response, biochemical, fluorescence imaging, cherry-pick, set 5 (AID 720591);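 note: desuccinylation of succinyl peptide AMC substrate read as fluorescence after trypsin release; potency of inhibitors that lower fluorescence and may act on trypsin instead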
[10] = CEM21 lymphoblast cell cytotoxicity, dose response, cytotoxicity control for viral fusion inhibitor project, CellTiter-Glo luminescence, cherry-picked (AID 652042); type: functional, cell-based;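 note: potency for signal decrease meaning cytotoxicity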
cells [11] = settings: HEK293
[12] = inhibitors of PGC1a acetylation in cells, dose response, cell-based, cherry-picked samples (AID 720514); type: functional;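 note: potency may reflect raised or lowered acetylation signal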
[13] = biological target: T4, Oxysterols receptor LXR-beta (Homo sapiens, UniProt P55055); type: functional, cell-based;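 note: agonist activity at LXR measured by a cell-based luminescence readout across a dose range, run as a counterscreen for daf-12 agonists; HEK293 cells with Gal4-LXR fusion and GAL4-driven luciferase reporter; potency for activation of Gal4-LXR reporter so compounds are agonists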
T4 sequence (P55055 whole entry): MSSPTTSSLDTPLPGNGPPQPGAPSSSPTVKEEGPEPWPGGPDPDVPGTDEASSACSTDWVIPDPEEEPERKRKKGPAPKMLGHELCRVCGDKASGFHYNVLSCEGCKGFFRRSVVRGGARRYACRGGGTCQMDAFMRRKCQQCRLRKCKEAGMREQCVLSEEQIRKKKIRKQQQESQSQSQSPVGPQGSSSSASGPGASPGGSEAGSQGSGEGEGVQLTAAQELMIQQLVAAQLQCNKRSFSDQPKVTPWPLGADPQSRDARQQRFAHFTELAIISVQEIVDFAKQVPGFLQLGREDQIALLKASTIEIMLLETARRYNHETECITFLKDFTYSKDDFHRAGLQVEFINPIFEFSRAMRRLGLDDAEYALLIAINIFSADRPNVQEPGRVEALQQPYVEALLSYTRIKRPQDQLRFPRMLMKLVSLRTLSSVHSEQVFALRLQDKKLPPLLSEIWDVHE

NC(=S)NN=Cc1nccc2c(C(F)(F)C(F)(F)C(F)(F)F)cccc12
AC50 (HEK293): 0.643 µM (active)
IC50 [1]: 31.9 µM (inactive)

CCOC(=O)c1ccc(NC(=O)Nc2ccc3c4c(cccc24)C(=O)N3CC)cc1
Ki (fMet-Leu-Phe receptor): > 66.7 µM (inactive)
AC50 (Cytochrome P450 2D6): 17.8 µM (inconclusive)

O=C(C[S+]([O-])c1cccc(Cl)c1)Nc1ccccc1Cl (stereo not given)
IC50 [2]: > 122 µM (inactive)
AC50 (Cytochrome P450 1A2): 15.8 µM (inconclusive)
IC50 [3]: > 122 µM (inactive)
AC50 (Cytochrome P450 2C9): inconclusive

CCc1nc(SCC(=O)Nc2ccc(N(C)C)cc2)c2ccccc2n1
IC50 (Major prion protein): 4.47 µM (active)
IC50 (cells [4]): > 138 µM (inactive)

COc1cc2c(cc1OC)-c1cc(Nc3ccc(C(=O)O)cc3)nc(=O)n1CC2
IC50 [5]: 17.6 µM (active)
EC50 [6]: > 53 µM (inactive)
IC50 [7]: > 47.1 µM (inactive)
AC50 (Caspase-6): 28.9 µM (active)
IC50 [8]: > 50 µM (inactive)
AC50 [9]: 4.29 µM (active)

COc1ccc(S(=O)(=O)N2CCCCC2)cc1NC(=O)CN(Cc1ccco1)Cc1ccco1
AC50 [10]: 68.8 µM (active)

COc1cc(/C=C(\C#N)C(=O)NC(C)C)cc(Cl)c1O
AC50 (cells [11]): 50.3 µM (active)

Cc1ccc(S(=O)(=O)N2CCCCC2C(=O)O)cc1 (stereo not given)
AC50 [12]: 17.6 µM (active)

Brc1ccc(-c2noc(-c3ccccn3)n2)o1
EC50 [13]: > 67.5 µM (inactive)
